The source of these data is patent publication US11065231B2, “Compounds and methods for the targeted degradation of interleukin-1 receptor- associated kinase 4 polypeptides” (Arvinas Operations, Inc., priority 2017, dated 2021).

As usually defined, the IC50 is the concentration needed to halve the response being measured. The DC50 is the concentration at which degradation of the target reaches its halfway point. Usually Dmax stands for the largest share of the target that was removed.

Like-named read-outs stand apart in the source and are kept apart here.

Assay [1] concerns the target T1, IRAK4 (Homo sapiens (Human), UniProt Q9NWZ3). In words: Biochemical Z'-Lyte FRET assay for IRAK4 kinase inhibition. Particulars: 2 nM enzyme, 1 mM ATP, 2 μM substrate. As for the experimental part:
Biochemical Assay for IRAK4 Kinase Inhibition.
A Z′-Lyte assay based on a fluorescence resonance energy transfer (FRET) readout was developed for measuring IRAK4-dependent phosphorylation of a FRET-peptide substrate as described by Thermo Fisher Scientific (Grand Island, N.Y.). At a starting concentration of 1.5 mM, the identified compounds were serially diluted with 100% dimethyl sulfoxide (DMSO) in 3-fold increments, into Greiner bio-one 96-well plates (cat. #: 650201, Greiner bio-one, Monroe, N.C.). Compounds were then transferred to intermediate Greiner bio-one 96-well plates and diluted 10-fold with Kinase assay buffer (25 mM HEPES, pH 7.5, 10 mM MgCl2, 10 mM MnCl2, 1 mM EGTA, and 0.01% Brij-35, 2 mM DTT). Three μL of the serially diluted compounds were then transferred in duplicate to low-volume 384-well black proxiplates (cat. #: 6008269; Perkin Elmer, Akron, Ohio), to give duplicate twelve-point concentration curves. Six μl of a 2.5× solution of IRAK4 enzyme (cat #: 40064, BPS Bioscience, San Diego, Calif.) in kinase buffer was added to each well, followed by a 10 minutes pre-incubation step. Reactions were initiated by adding 6 μl of a 2.5× substrate mix of ATP and Z′-Lyte Ser/Thr 7 peptide (cat. #: PV3180, Thermo Fisher Scientific, Grand Island, N.Y.) and proceeded at room temperature for 1 hour. The final concentration of key reagents in the 15 uL kinase reactions were 2 μM substrate, 2 nM enzyme, and 1 mM ATP, with dose responses starting at 30 μM compound. At the end of the kinase reactions, 5 μl of developing solution (as instructed in for cat. #: PV3180, Thermo Fisher Scientific, Grand Island, N.Y.) was added to each well and incubated at room temperature for 1 hour. All wells were read on an Envision 2105 Multilabel fluorescence plate reader (Perkin Elmer, Waltham, Mass.) at 400 nm excitation and 460 nm/530 nm emission. Plus and minus 100% inhibition controls were used to calculate percent inhibition and IC50 curves were generated using Graphpad Prism (La Jolla, Calif.).

For assay [2], the target named is T1, IRAK4. In words: Western blot assay for assessing degradation of IRAK4 in MCF7 cells. Particulars: for Dmax: read-out: IRAK4 Dmax (%). The assay is classed as cell-based. The procedure: Western Blot Assay for Assessing Degradation of IRAK4.
MCF7 cells, purchased from ATCC (Manassas, Va.), were used at a passage range of 2-19. Cells were seeded at 50% confluency in 96-well plates at 180 μl/well in cell media (Dulbecco's Modified Eagle medium/nutrient F-12 Ham-10% Fetal Bovine Serum) and incubated overnight. The next morning, compounds were serially diluted and added (20 μl into 180 μl media) at a final DMSO concentration of 0.1%. Cells were rinsed with cell media and replaced with compounds in media, followed by incubation overnight. After a 24 hour incubation with compound, cell were harvested (90-100% confluent at harvest). Cells were then washed once with 100 μl of Dulbecco's hosphate-buffered saline and then lysed with 40 μl of lysis buffer (1×RIPA+HALT protease inhibitor+HALT phosphatase inhibitor) on ice for 10 minutes. Lysates were then cleaned by filtration in 1.2 µm filter plates followed by western blotting. For each sample, 30 μl of lysate were added to 10 μl of 4×LDS sample buffer, then denatured at 95° C. for 5 minutes in the thermal cycler and placed on ice. Fifteen μL of each sample were then loaded on 4-15% Tris/Glycine gels and run for 25 minutes at 250 (constant) volts in 1× Tris/Glycine buffer. Protein was transferred from gels to nitrocellulose using a BioRad Turbo dry-transfer unit with the Turbo/midi default program. All blots were rinsed with ddH2O and blocked for 1 hour at room temperature in 5% bovine serum albumin (BSA) in tris-buffered saline-Tween 20 (TBS-T) (0.1%) on rocker. Blots were exposed to primary antibody in 5% BSA in TBS-T (0.1%) overnight at 4° C. on rocker. Primary antibodies, diluted 1:1000 in […], were as follows: anti-IRAK4 (cat. #: ab119942, Abcam, Cambridge, Mass.), anti-IRAK1 (cat. #: CST 4504S, Cell Signaling Technology, Danvers, Mass.), and anti-Beta-actin (Cat. #: ab8227, Abcam, Cambridge, Mass.). Blots were then washed with TBS-T (0.1%) three times for 5 minutes on a rocker at room temperature. Secondary antibody (1:18,000 anti-rabbit-HRP and/or anti-mouse-HRP in 5% BSA in TBST (0.1%) was then added, and blots incubated at room temperature rocker for 1 hour. Blots were washed 3 times in TBS-T (0.1%) for 5 minutes at room temperature on the rocker. Signal was developed with Femto Max substrate for 5 minutes and blots read on a ChemiDoc. Percent degradation was assessed by comparing IRAK4 signal in compound vs. DMSO treated lysates.
In general terms: Immunoblotting shows a protein as a band on a membrane.

Where [3] appears, read: Table 5, IRAK4 degradation, 24 hour incubation, read-out: IRAK4 DC50.
Where [4] appears, read: Table 5, IRAK4 degradation, 24 hour incubation.

T1 sequence (Q9NWZ3 whole entry): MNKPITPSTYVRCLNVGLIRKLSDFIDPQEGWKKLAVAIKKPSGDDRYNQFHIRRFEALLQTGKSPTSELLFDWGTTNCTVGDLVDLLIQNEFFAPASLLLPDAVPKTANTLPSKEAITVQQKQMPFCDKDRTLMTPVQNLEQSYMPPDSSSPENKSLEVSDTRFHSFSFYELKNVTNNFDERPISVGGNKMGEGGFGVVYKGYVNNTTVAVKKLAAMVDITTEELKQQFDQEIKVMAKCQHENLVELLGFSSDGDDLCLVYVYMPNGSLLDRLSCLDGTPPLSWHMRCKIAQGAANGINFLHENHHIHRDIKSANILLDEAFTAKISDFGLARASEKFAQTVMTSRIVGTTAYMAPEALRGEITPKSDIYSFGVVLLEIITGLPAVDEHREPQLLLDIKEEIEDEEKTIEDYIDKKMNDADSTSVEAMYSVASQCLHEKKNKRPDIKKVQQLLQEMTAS

As for `Cc1ncsc1-c1ccc(CNC(=O)[C@@H]2C[C@@H](O)CN2C(=O)[C@@H](NC(=O)COCCOCCOCCN2CCN(Cc3ccc4c(c3)nc(NC(=O)c3cccc(C(F)(F)F)c3)n4C3CCC(CO)CC3)CC2)C(C)(C)C)cc1` (mixture of isomers) [compound 13, (2S,4R)-1-((S)-2-(tert-butyl)-14-(4-((1-((1SR,4SR)-4-(hydroxymethyl)cyclohexyl)-2-(3-(trifluoromethyl)benzamido)-1H-benzo[d]imidazol-5-yl)methyl)piperazin-1-yl)-4-oxo-6,9,12-trioxa-3-azatetradecanoyl)-4-hydroxy-N-(4-(4-methylthiazol-5-yl)benzyl)pyrrolidine-2-carboxamide], in assay [1], the IC50 fell in the range of 300 to 1000 nM. Besides, the DC50 in assay [2] (setting [3]) was no less than 1000 nM.

Regarding `Cc1ncsc1-c1ccc(CNC(=O)[C@@H]2C[C@@H](O)CN2C(=O)[C@@H](NC(=O)COCCOCCOCCOCCN2CCN(Cc3ccc4c(c3)nc(NC(=O)c3cccc(C(F)(F)F)c3)n4C3CCC(CO)CC3)CC2)C(C)(C)C)cc1` (mixture of isomers) [compound 14, (2S,4R)-1-((S)-2-(tert-butyl)-17-(4-((1-((1SR,4SR)-4-(hydroxymethyl)cyclohexyl)-2-(3-(trifluoromethyl)benzamido)-1H-benzo[d]imidazol-5-yl)methyl)piperazin-1-yl)-4-oxo-6,9,12-tetraoxa-3-azatetradecanoyl)-4-hydroxy-N-(4-(4-methylthiazol-5-yl)benzyl)pyrrolidine-2-carboxamide], the IC50 in assay [1] is less than 30 nM. Moreover, in assay [2] (setting [3]), the DC50 is no less than 1000 nM.

Molecule `O=C1CCC(N2C(=O)c3ccc(OCCN4CCN(Cc5ccc6c(c5)nc(NC(=O)c5cccc(C(F)(F)F)c5)n6[C@H]5CC[C@@H](CO)CC5)CC4)cc3C2=O)C(=O)N1` (some centres unmarked) [compound 1, N-(5-((4-(2-((2-(2,6-dioxopiperidin-3-yl)-1,3-dioxoisoindolin-5-yl)oxy)ethyl)piperazin-1-yl)methyl)-1-((1s,4s)-4-(hydroxymethyl)cyclohexyl)-1H-benzo[d]imidazol-2-yl)-3-(trifluoromethyl)benzamide] registered an IC50 in assay [1] of less than 30 nM. The DC50 in assay [2] (setting [3]) lay in the range of 100 to 300 nM.

In turn, `O=C1CCC(N2C(=O)c3ccc(OCCOCCN4CCN(Cc5ccc6c(c5)nc(NC(=O)c5cccc(C(F)(F)F)c5)n6[C@H]5CC[C@@H](CO)CC5)CC4)cc3C2=O)C(=O)N1` (some centres unmarked) [compound 2, N-(5-((4-(2-(2-((2-(2,6-dioxopiperidin-3-yl)-1,3-dioxoisoindolin-5-yl)oxy)ethoxy)ethyl)piperazin-1-yl)methyl)-1-((1s,4s)-4-(hydroxymethyl)cyclohexyl)-1H-benzo[d]imidazol-2-yl)-3-(trifluoromethyl)benzamide] gave a half-inhibitory concentration (IC50) in assay [1] of less than 30 nM. The DC50 in assay [2] (Table 1, 24 hours, read-out: IRAK4 by western DC50) was 10 nM; in assay [2] (setting [3]), less than 30 nM; in assay [2] (western blot, 24 hour incubation, read-out: DC50 (IRAK4 degradation)), 9.7 nM.

In turn, `O=C1CCC(N2Cc3cc(OCCOCCN4CCN(Cc5ccc6c(c5)nc(NC(=O)c5cccc(C(F)(F)F)c5)n6[C@H]5CC[C@@H](CO)CC5)CC4)ccc3C2=O)C(=O)N1` (some centres unmarked) [compound 6, N-(5-((4-(2-(2-((2-(2,6-dioxopiperidin-3-yl)-1-oxoisoindolin-5-yl)oxy)ethoxy)ethyl)piperazin-1-yl)methyl)-1-((1s,4s)-4-(hydroxymethyl)cyclohexyl)-1H-benzo[d]imidazol-2-yl)-3-(trifluoromethyl)benzamide] yielded an IC50 in assay [1] of less than 30 nM. Also, the DC50 in assay [2] (setting [3]) was no less than 1000 nM.

With `CC1CCC(n2c(NC(=O)c3cccc(C(F)(F)F)c3)nc3cc(CN4CCN(CCOCCOc5ccc6c(c5)C(=O)N(C5CCC(=O)NC5=O)C6=O)CC4)ccc32)CC1` (centres unmarked) [compound 7, N-(5-((4-(2-(2-((2-(2,6-dioxopiperidin-3-yl)-1,3-dioxoisoindolin-5-yl)oxy)ethoxy)ethyl)piperazin-1-yl)methyl)-1-((1s,4s)-4-methylcyclohexyl)-1H-benzo[d]imidazol-2-yl)-3-(trifluoromethyl)benzamide], the IC50 in assay [1] was 100 to 300 nM. In assay [2] (setting [3]), the DC50 was no less than 1000 nM. For the same molecule, the Dmax in assay [2] (setting [4]) lay within 30 to 50%.

With `O=C1CCC(N2C(=O)c3ccc(N4CCC(CN5CCN(Cc6ccc7c(c6)nc(NC(=O)c6cccc(C(F)(F)F)c6)n7[C@H]6CC[C@@H](CO)CC6)CC5)CC4)cc3C2=O)C(=O)N1` (some centres unmarked) [compound 9, N-(5-((4-((1-(2-(2,6-dioxopiperidin-3-yl)-1,3-dioxoisoindolin-5-yl)piperazin-4-yl)methyl)piperzin-1-yl)methyl)-1-((1s,4s)-4-(hydroxymethyl)cyclohexyl)-1H-benzo[d]imidazol-2-yl)-3-(trifluoromethyl)benzamide], the IC50 in assay [1] is less than 30 nM. Besides, in assay [2] (setting [3]), the DC50 was less than 30 nM. In addition, in assay [2] (setting [4]), the Dmax was greater than 70%.

On to `O=C1CCC(N2C(=O)c3ccc(OCCN4CCC(CN5CCN(Cc6ccc7c(c6)nc(NC(=O)c6cccc(C(F)(F)F)c6)n7[C@H]6CC[C@@H](CO)CC6)CC5)CC4)cc3C2=O)C(=O)N1` (some centres unmarked) [compound 10], for which the half-maximal inhibitory concentration (IC50) in assay [1] is less than 30 nM. The DC50 in assay [2] (setting [3]) was 30 to 100 nM.

`Cc1ccc(-n2nc(N3CCN(CCOCCOCCOc4ccc5c(c4)C(=O)N(C4CCC(=O)NC4=O)C5=O)CC3)cc2NC(=O)c2cnn3cccnc23)nc1` (centres unmarked) [compound 25, N-(3-(4-(2-(2-(2-((2-(2,6-dioxopiperidin-3-yl)-1,3-dioxoisoindolin-5-yl)oxy)ethoxy)ethoxy)ethyl)piperazin-1-yl)-1-(5-methylpyridin-2-yl)-1H-pyrazol-5-yl)pyrazolo[1,5-a]pyrimidine-3-caboxamide] yielded an IC50 in assay [1] of 30 to 100 nM. The DC50 in assay [2] (setting [3]) was no less than 1000 nM.

As to `Cc1ccc(-n2nc(N3CCN(CCOCCOCCOCCOc4ccc5c(c4)C(=O)N(C4CCC(=O)NC4=O)C5=O)CC3)cc2NC(=O)c2cnn3cccnc23)nc1` (centres unmarked) [compound 26, N-(3-(4-(2-(2-(2-(2-((2-(2,6-dioxopiperidin-3-yl)-1,3-dioxoisoindolin-5-yl)oxy)ethoxy)ethoxy)ethoxy)ethyl)piperazin-1-yl)-1-(5-methylpyridin-2-yl)-1H-pyrazol-5-yl)pyrazolo[1,5-a]pyrimidine-3-caboxamide], the IC50 in assay [1] lay in the range of 300 to 1000 nM. Further, the DC50 in assay [2] (setting [3]) is no less than 1000 nM.

On to `Cc1ccc(-n2nc(N3CCN(CCOCCOCCOCC(=O)N[C@H](C(=O)N4C[C@H](O)C[C@H]4C(=O)NCc4ccc(-c5scnc5C)cc4)C(C)(C)C)CC3)cc2NC(=O)c2cnn3cccnc23)nc1` [compound 27, N-(3-(4-((S)-13-((2S,4R)-4-hydroxy-2-((4-(4-methylthiazol-5-yl)benzyl)carbamoyl)pyrrolidine-1-carbonyl)-14,14-dimethyl-11-oxo-3,6,9-trioxa-12-azapentadecyl)piperazin-1-yl)-1-(5-methylpyridin-2-yl)-1H-pyrazol-5-yl)pyrazolo[1,5-a]pyrimidine-3-carboxamide], for which the IC50 in assay [1] lay in the range of 300 to 1000 nM. The DC50 in assay [2] (setting [3]) was no less than 1000 nM.
